{"source": "patent US9388140B2", "about": "“Substituted benzimidazoles” (priority 2011, dated 2016)"}
{"target": "human kinase Mps-1 (Homo sapiens (Human), UniProt P33981)", "sequence (P33981 whole entry)": "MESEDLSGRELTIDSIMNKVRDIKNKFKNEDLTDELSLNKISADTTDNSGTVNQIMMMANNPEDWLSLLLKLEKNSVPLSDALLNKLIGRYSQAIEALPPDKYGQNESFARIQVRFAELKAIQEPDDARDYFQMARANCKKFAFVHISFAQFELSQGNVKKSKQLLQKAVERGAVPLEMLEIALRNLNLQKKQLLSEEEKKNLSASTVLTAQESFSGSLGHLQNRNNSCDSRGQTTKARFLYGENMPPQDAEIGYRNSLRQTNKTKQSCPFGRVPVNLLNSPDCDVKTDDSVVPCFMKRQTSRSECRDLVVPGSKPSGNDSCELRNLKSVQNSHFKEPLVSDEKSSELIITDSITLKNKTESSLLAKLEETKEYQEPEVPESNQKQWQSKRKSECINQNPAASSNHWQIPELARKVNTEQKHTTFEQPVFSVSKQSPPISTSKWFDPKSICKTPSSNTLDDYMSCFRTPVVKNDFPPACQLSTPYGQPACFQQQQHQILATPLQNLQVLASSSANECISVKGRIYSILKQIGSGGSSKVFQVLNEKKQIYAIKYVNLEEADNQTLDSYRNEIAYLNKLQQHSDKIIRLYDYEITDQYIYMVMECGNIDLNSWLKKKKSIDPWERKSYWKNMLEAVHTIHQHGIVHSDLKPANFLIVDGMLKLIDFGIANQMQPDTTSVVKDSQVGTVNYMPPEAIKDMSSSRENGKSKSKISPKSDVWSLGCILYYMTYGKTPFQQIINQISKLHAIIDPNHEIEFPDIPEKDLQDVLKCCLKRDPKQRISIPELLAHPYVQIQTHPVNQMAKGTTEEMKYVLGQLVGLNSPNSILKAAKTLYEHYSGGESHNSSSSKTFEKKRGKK", "assay": "Mps-1 kinase assay (TR-FRET)", "type": "biochemical", "conditions": "N-terminally GST-tagged human full length recombinant Mps-1; 10 μM ATP; 1 μM biotinylated peptide substrate; read-out: Mps1 IC50", "in_short": "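Kinase activity of N-terminally GST-tagged full-length recombinant Mps-1, used at about 1 nM final and set within the linear range, was measured on a biotinylated peptide substrate. Phosphopeptide was detected by TR-FRET from Eu-anti-phospho(Ser/Thr) antibody to streptavidin-XLent after 1 h at 22° C.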", "units": {"IC50": "nM"}}
{"smiles": "CNC(=O)c1ccc(-n2cnc3c(NCC4CCOCC4)cc(Oc4ccc(O)c(F)c4)cc32)cc1C", "note": "[Example 112, 4-{6-(3-fluoro-4-hydroxyphenoxy)-4-[(tetrahydro-2H-pyran-4-ylmethyl)amino]-1H-benzimidazol-1-yl}-N,2-dimethylbenzamid]", "IC50": 3.6}
{"smiles": "CCNC(=O)c1ccc(-n2cnc3c(NCC4CCOCC4)cc(Oc4ccc(O)c(F)c4)cc32)cc1C", "note": "[Example 113A, N-ethyl-4-{6-(3-fluoro-4-hydroxyphenoxy)-4-[(tetrahydro-2H-pyran-4-ylmethyl)amino]-1H-benzimidazol-1-yl}-2-methylbenzamide]", "IC50": 6.3}
{"smiles": "CCNC(=O)c1ccc(-n2cnc3c(NCC4CCOCC4)cc(Oc4ccc(OC)c(SC)c4)cc32)cc1C", "note": "[Example 113B, N-ethyl-4-{6-[4-methoxy-3-(methylsulfanyl)phenoxy]-4-[(tetrahydro-2H-pyran-4-ylmethyl)amino]-1H-benzimidazol-1-yl}-2-methylbenzamide]", "IC50": 54}
{"smiles": "Cc1cc(-n2cnc3c(NCC4CCOCC4)cc(Oc4ccc(O)c(F)c4)cc32)ccc1C(=O)NC1CC1", "note": "[Example 114A, N-cyclopropyl-4-{6-(3-fluoro-4-hydroxyphenoxy)-4-[(tetrahydro-2H-pyran-4-ylmethyl)amino]-1H-benzimidazol-1-yl}-2-methylbenzamide]", "IC50": 0.7}
{"smiles": "COc1ccc(Oc2cc(NCC3CCOCC3)c3ncn(-c4ccc(C(=O)NC5CC5)c(C)c4)c3c2)cc1SC", "note": "[Example 114B, N-cyclopropyl-4-{6-[4-methoxy-3-(methylsulfanyl)phenoxy]-4-[(tetrahydro-2H-pyran-4-ylmethyl)amino]-1H-benzimidazol-1-yl}-2-methylbenzamide]", "IC50": 6.7}
{"smiles": "CNC(=O)c1ccc(-n2cnc3c(NCC4CCOCC4)cc(Oc4ccc(O)cc4F)cc32)cc1C", "note": "[Example 115A, 4-{6-(2-fluoro-4-hydroxyphenoxy)-4-[(tetrahydro-2H-pyran-4-ylmethyl)amino]-1H-benzimidazol-1-yl}-N,2-dimethylbenzamide]", "IC50": 7.3}
{"smiles": "CNC(=O)c1ccc(-n2cnc3c(NCC4CCOCC4)cc(Oc4ccc(OC)cc4SC)cc32)cc1C", "note": "[Example 115B, 4-{6-[4-methoxy-2-(methylsulfanyl)phenoxy]-4-[(tetrahydro-2H-pyran-4-ylmethyl)amino]-1H-benzimidazol-1-yl}-N,2-dimethylbenzamide]", "IC50": 28.9}
{"smiles": "Cc1cc(-n2cnc3c(NCC4CCOCC4)cc(Oc4ccc(O)cc4F)cc32)ccc1C(=O)NC1CC1", "note": "[Example 116A, N-cyclopropyl-4-{6-(2-fluoro-4-hydroxyphenoxy)-4-[(tetrahydro-2H-pyran-4-ylmethyl)amino]-1H-benzimidazol-1-yl}-2-methylbenzamide]", "IC50": 1}
{"smiles": "COc1ccc(Oc2cc(NCC3CCOCC3)c3ncn(-c4ccc(C(=O)NC5CC5)c(C)c4)c3c2)c(SC)c1", "note": "[Example 116B, N-cyclopropyl-4-{6-[4-methoxy-2-(methylsulfanyl)phenoxy]-4-[(tetrahydro-2H-pyran-4-ylmethyl)amino]-1H-benzimidazol-1-yl}-2-methylbenzamide]", "IC50": 2.9}
{"smiles": "CCNC(=O)c1ccc(-n2cnc3c(NCC4CCOCC4)cc(Oc4ccc(O)cc4F)cc32)cc1C", "note": "[Example 117A, N-ethyl-4-{6-(2-fluoro-4-hydroxyphenoxy)-4-[(tetrahydro-2H-pyran-4-ylmethyl)amino]-1H-benzimidazol-1-yl}-2-methylbenzamide]", "IC50": 6.7}
{"smiles": "CCNC(=O)c1ccc(-n2cnc3c(NCC4CCOCC4)cc(Oc4ccc(OC)cc4SC)cc32)cc1C", "note": "[Example 117B, N-ethyl-4-[6-{4-methoxy-2-(methylsulfanyl)phenoxy]-4-[(tetrahydro-2H-pyran-4-ylmethyl)amino]-1H-benzimidazol-1-yl}-2-methylbenzamide]", "IC50": 25.8}
